Data as given in ChEMBL document CHEMBL3885881, “DrugMatrix”.

Species: Rattus norvegicus
Experiment: DrugMatrix - Regimen: Daily Repeat
Format: toxicity, organism-based, Sprague-Dawley
Set-up: regimen Daily Repeat, gender Male, age 6-8 weeks
Details: in vivo, po, route oral GAVAGE, vehicle 100 % WATER; for ABSOLUTE BASOPHIL / ABSOLUTE EOSINOPHIL / ABSOLUTE LYMPHOCYTE / ABSOLUTE MONOCYTE / ABSOLUTE SEGMENTED NEUTROPHIL / BASOPHIL / EOSINOPHIL / ERYTHROCYTE COUNT / HEMATOCRIT / HEMOGLOBIN / LEUKOCYTE COUNT / LYMPHOCYTE / MEAN CORPUSCULAR HEMOGLOBIN / MEAN CORPUSCULAR HEMOGLOBIN CONCENTRATION / MEAN CORPUSCULAR VOLUME / MONOCYTE / NEUTROPHIL / NUCLEATED RED BLOOD CELLS / PLATELET COUNT: tissue Blood; for ALANINE AMINOTRANSFERASE / ALBUMIN / ALKALINE PHOSPHATASE / ASPARTATE AMINOTRANSFERASE / BLOOD UREA NITROGEN / CARBON DIOXIDE / CHLORIDE / CHOLESTEROL / CREATINE PHOSPHOKINASE / CREATININE / GLUCOSE / LACTATE DEHYDROGENASE / LIPASE / PHOSPHORUS / POTASSIUM / SODIUM / TOTAL BILIRUBIN / TOTAL PROTEIN / URIC ACID: tissue Plasma
[1] = 58 mg/kg, 120 h, dose level Low, time 5 day
[2] = 1400 mg/kg, 72 h, dose level High, time 3 day
[3] = 1400 mg/kg, 120 h, dose level High, time 5 day

## Cc1cn([C@H]2C=C[C@@H](CO)O2)c(=O)[nH]c1=O [STAVUDINE]
[1]
  ABSOLUTE BASOPHIL: 0 CELLS/uL
  ABSOLUTE EOSINOPHIL: 94.33 CELLS/uL
  ABSOLUTE LYMPHOCYTE: 9260.33 CELLS/uL
  ABSOLUTE MONOCYTE: 0 CELLS/uL
  ABSOLUTE SEGMENTED NEUTROPHIL: 878.67 CELLS/uL
  BASOPHIL: 0%
  EOSINOPHIL: 1%
  ERYTHROCYTE COUNT: 5.68 x10E6/uL
  HEMATOCRIT: 35.3%
  HEMOGLOBIN: 13.67 G/DL
  LEUKOCYTE COUNT: 10.23 x10E3/uL
  LYMPHOCYTE: 90%
  MEAN CORPUSCULAR HEMOGLOBIN: 24.17 pg
  MEAN CORPUSCULAR HEMOGLOBIN CONCENTRATION: 38.73 G/DL
  MEAN CORPUSCULAR VOLUME: 62.33 fL
  MONOCYTE: 0%
  NEUTROPHIL: 9%
  NUCLEATED RED BLOOD CELLS: 0.33 /100WBC
  PLATELET COUNT: 999.33 x10E3/uL
  ALANINE AMINOTRANSFERASE: 49 u/L
  ALBUMIN: 4.1 G/DL
  ALKALINE PHOSPHATASE: 425 u/L
  ASPARTATE AMINOTRANSFERASE: 86.33 u/L
  BLOOD UREA NITROGEN: 14.33 mg/dL
  CARBON DIOXIDE: 28.33 mmol/L
  CHLORIDE: 104 MEQ/L
  CHOLESTEROL: 72.33 mg/dL
  CREATINE PHOSPHOKINASE: 506.33 u/L
  CREATININE: 0.15 mg/dL
  GLUCOSE: 173.33 mg/dL
  LACTATE DEHYDROGENASE: 155.33 u/L
  LIPASE: 8.67 u/L
  PHOSPHORUS: 11.87 mg/dL
  POTASSIUM: 5.3 MEQ/L
  SODIUM: 146.7 MEQ/L
  TOTAL BILIRUBIN: 0.17 mg/dL
  TOTAL PROTEIN: 6.03 G/DL
  URIC ACID: 0.67 mg/dL
[2]
  ABSOLUTE BASOPHIL: 0 CELLS/uL
  ABSOLUTE EOSINOPHIL: 0 CELLS/uL
  ABSOLUTE LYMPHOCYTE: 15246 CELLS/uL
  ABSOLUTE MONOCYTE: 148.33 CELLS/uL
  ABSOLUTE SEGMENTED NEUTROPHIL: 1072.33 CELLS/uL
  BASOPHIL: 0%
  EOSINOPHIL: 0%
  ERYTHROCYTE COUNT: 5.98 x10E6/uL
  HEMATOCRIT: 37.4%
  HEMOGLOBIN: 14.87 G/DL
  LEUKOCYTE COUNT: 16.47 x10E3/uL
  LYMPHOCYTE: 92.67%
  MEAN CORPUSCULAR HEMOGLOBIN: 24.9 pg
  MEAN CORPUSCULAR HEMOGLOBIN CONCENTRATION: 39.77 G/DL
  MEAN CORPUSCULAR VOLUME: 62.67 fL
  MONOCYTE: 1%
  NEUTROPHIL: 6.33%
  NUCLEATED RED BLOOD CELLS: 0 /100WBC
  PLATELET COUNT: 998.33 x10E3/uL
  ALANINE AMINOTRANSFERASE: 113.67 u/L
  ALBUMIN: 3.93 G/DL
  ALKALINE PHOSPHATASE: 510.67 u/L
  ASPARTATE AMINOTRANSFERASE: 191 u/L
  BLOOD UREA NITROGEN: 12.33 mg/dL
  CARBON DIOXIDE: 27 mmol/L
  CHLORIDE: 100.67 MEQ/L
  CHOLESTEROL: 97.33 mg/dL
  CREATINE PHOSPHOKINASE: 237.67 u/L
  CREATININE: 0.15 mg/dL
  GLUCOSE: 155 mg/dL
  LACTATE DEHYDROGENASE: 355 u/L
  LIPASE: 11.33 u/L
  PHOSPHORUS: 12.77 mg/dL
  POTASSIUM: 6.93 MEQ/L
  SODIUM: 142.73 MEQ/L
  TOTAL BILIRUBIN: 0.23 mg/dL
  TOTAL PROTEIN: 5.63 G/DL
  URIC ACID: 1.47 mg/dL
[3]
  ABSOLUTE BASOPHIL: 0 CELLS/uL
  ABSOLUTE EOSINOPHIL: 247.33 CELLS/uL
  ABSOLUTE LYMPHOCYTE: 16216.67 CELLS/uL
  ABSOLUTE MONOCYTE: 311.33 CELLS/uL
  ABSOLUTE SEGMENTED NEUTROPHIL: 2358 CELLS/uL
  BASOPHIL: 0%
  EOSINOPHIL: 1.33%
  ERYTHROCYTE COUNT: 5.64 x10E6/uL
  HEMATOCRIT: 35.57%
  HEMOGLOBIN: 13.87 G/DL
  LEUKOCYTE COUNT: 19.13 x10E3/uL
  LYMPHOCYTE: 84.67%
  MEAN CORPUSCULAR HEMOGLOBIN: 24.6 pg
  MEAN CORPUSCULAR HEMOGLOBIN CONCENTRATION: 39 G/DL
  MEAN CORPUSCULAR VOLUME: 63.1 fL
  MONOCYTE: 1.67%
  NEUTROPHIL: 12.33%
  NUCLEATED RED BLOOD CELLS: 0 /100WBC
  PLATELET COUNT: 1296.67 x10E3/uL
  ALANINE AMINOTRANSFERASE: 50.33 u/L
  ALBUMIN: 4.17 G/DL
  ALKALINE PHOSPHATASE: 429.33 u/L
  ASPARTATE AMINOTRANSFERASE: 75 u/L
  BLOOD UREA NITROGEN: 14.67 mg/dL
  CARBON DIOXIDE: 23 mmol/L
  CHLORIDE: 102 MEQ/L
  CHOLESTEROL: 81.67 mg/dL
  CREATINE PHOSPHOKINASE: 207 u/L
  CREATININE: 0.21 mg/dL
  GLUCOSE: 162 mg/dL
  LACTATE DEHYDROGENASE: 128.33 u/L
  LIPASE: 11.67 u/L
  PHOSPHORUS: 11 mg/dL
  POTASSIUM: 5.59 MEQ/L
  SODIUM: 145 MEQ/L
  TOTAL BILIRUBIN: 0.2 mg/dL
  TOTAL PROTEIN: 5.8 G/DL
  URIC ACID: 1.77 mg/dL
